Reference: patent US20150017717A1, “CULTURE MEDIUM FOR EUKARYOTIC CELLS” (Friesland Brands B.V., priority 2012, published 2015)

Experiments:
[1] = test system: IgG expressing CHO cell line (CHO-2: ATCC CRL 11397, producing IgG4); assay: Specific IgG production of CHO cells in supplemented chemically defined medium (sandwich ELISA / AUC); type: cell-based, Chinese hamster; details: ratio of cumulative IgG production (mg/ml) and AUC at day 11
Description: (§1) The cell culture assay was carried out in commercially available IS CHO-CD medium (Irvine Scientific, Cat. No. 91119). To this media, L-Glutamine (2 mM), pluronic acid, hypoxanthine (100 μM) and thymidine (15 μM) were added. Penicillin and streptomycin were added to prevent any bacterial growth during the growth assay. The media was supplemented with methyl-L-3-phenyl lactate or mucic acid, both purchased from Sigma Aldrich, Germany, in varying concentrations (1×10^−3 to 1×10^−1% (w/v), see Table 2). The supplemented medium was mixed with a vortex mixture, filtered using a 0.22 μm filter and subsequently used in a growth assay.
(§2) An IgG expressing CHO cell line was used (CHO-2: ATCC CRL 11397, producing IgG4). The cell lines were grown in the adherent conditions for a few passages and once confluent, they were transferred to animal-free conditions in the supplemented media described in Example 2.
(§3) To measure growth and production curves, Chinese hamster ovary (CHO) cells were grown in suspension culture in baffled flasks. 20×10^6 cells were transferred in 25 ml media to the baffled flasks. Chemically defined media with and without added alpha-hydroxy acid derivatives were tested. No fresh media was added during the growth assay. Cells were counted using the CEDEX HiRes cell counter (Innovatis, Germany). The cell counts were used to calculate the area under the growth curve and represented as dimensionless area under curve (AUC) values as described in detail in Ling, C. X, Huang, J. and Zhang, H. (2003), International joint conferences on artificial intelligence, pp. 329-341. The supernatant samples were taken every alternate days for the IgG production measurements. IgG production was measured using sandwich ELISA method. The specific IgG production was calculated by taking the ratio of cumulative IgG production (in mg/ml) and AUC measured at day 11 of the growth assay. The cells were visually inspected using a phase contrast microscope (Zeiss Axiovert 25, 400× magnification). […] Only single cells were observed and no aggregation of cells was seen. The cell shape was also positively affected. […] This was in contrast with the observation that a lot of cell aggregates were present in CHO cell cultures grown in chemically defined medium without alpha-hydroxy acid derivatives.

[2] = test system: IgG expressing CHO cell line (CHO-2: ATCC CRL 11397, producing IgG4); assay: Cell growth of CHO cells in suspension culture (area under growth curve, CEDEX cell counts); type: cell-based, Chinese hamster; details: dimensionless AUC
Description: as §1, §2, §3

[3] = test system: cell culture (antibody production); assay: Linear regression of antibody production in cell culture assays against relative concentration of components in plant protein hydrolysates; type: cell-based; details: linear regression over plant protein hydrolysates, MS Excel SLOPE function
Description: Commercial plant protein hydrolysates like SE50MAF-UF, WGE80M-UF, CNE80M-UF, PCE80B obtained from FrieslandCampina Domo, USA were analysed by Liquid chromatography/Mass Spectrometry (LC/MS, LC/MS2) using a Waters Acquity UPLC and a Thermo-Finnigan LTQ mass spectrometer, which consists of an electrospray ionization (ESI) source and linear ion-trap (LIT) mass analyzer. The sample extract was split into two aliquots, dried, then reconstituted in acidic or basic LC-compatible solvents. One aliquot was analyzed using acidic positive ion optimized conditions and the other using basic negative ion optimized conditions in two independent injections using separate dedicated columns. Extracts reconstituted in acidic conditions were gradient eluted using water and methanol both containing 0.1% formic acid, while the basic extracts, which also use water/methanol, contain 6.5 mM ammonium bicarbonate. The MS analysis alternated between MS and data-dependent MS2 scans using dynamic exclusion. Biochemicals were identified by comparison to metabolomic library entries of purified standards or recurrent unknown entities. The combination of chromato-graphic properties and mass spectra gives an indication of a match to the specific compound or an isobaric entity. Thus, an overview of the biochemical components and their relative concentration present in plant protein hydrolysates was generated. Furthermore, all the hydrolysates were tested in the cell culture assays for cell growth and antibody production. […] Using the SLOPE function of Microsoft Excel 2003, the correlation between antibody production and relative concentration of the components was calculated, the results of which are presented in Table 1 below. The higher the positive slope, the higher the importance of a biochemical component in the cell culture. p-values, also calculated using MS Excel's correlation regression function, represent the significance of the values, with the lower the p-value (all between 0 and 1), the more significant the measured value.

Compound | Specific IgG production after 11 days ([1]; 1 × 10^−1 % w/v added) | Cell growth (area under curve) after 14 days ([2]; 1 × 10^−1 % w/v added) | SLOPE (correlation of antibody production and relative concentration of the component) [3] | Specific IgG production after 11 days ([1]; 1 × 10^−2 % w/v added) | Specific IgG production after 11 days ([1]; 1 × 10^−3 % w/v added) | Cell growth (area under curve) after 14 days ([2]; 1 × 10^−2 % w/v added) | Cell growth (area under curve) after 14 days ([2]; 1 × 10^−3 % w/v added)
COC(=O)[C@@H](O)Cc1ccccc1 [Methyl-L-3-phenyl lactate, methyl-L-3-phenyl lactate] | 77.80 | 46.70 |  |  |  |  | 
O=C(O)[C@@H](O)[C@H](O)[C@H](O)[C@@H](O)C(=O)O [Mucic acid, mucic acid] | 84.61 | 48.29 | 2108.11 | 90.27 | 90.85 | 49.64 | 49.88
CC(C)C(O)C(=O)O (stereo not drawn) [alpha-hydroxyisovaleric acid] |  |  | 2830.96 |  |  |  | 
CC(C)CC(O)C(=O)O (stereo not drawn) [alpha-hydroxyisocaproic acid] |  |  | 1654.23 |  |  |  | 
